The structures appear in SMILES notation.

The text below walks through data of patent publication US7462640B2, “Indol-6yl sulfonamide derivatives, their preparation and their use as 5-HT-6 as modulators” (Laboratorios del Dr. Esteve S.A., priority 2003, dated 2008).

`CN(C)CCn1ccc2ccc(NS(=O)(=O)c3ccc4ccccc4c3)cc21` [Example 2, N-[1-(2-Dimethylaminoethyl)-1H-indole-6-yl]-naphthalene-2-sulfonamide] displayed a melting point of 140 to 143 °C.

Consider `CN(C)CCn1ccc2ccc(NS(=O)(=O)c3cccc4ccccc34)cc21` [Example 3, N-[1-(2-Dimethylaminoethyl)-1H-indole-6-yl]-naphthalene-1-sulfonamide], for which the melting point lay in the range of 139 to 142 °C.

Regarding `CN(C)CCn1ccc2ccc(NS(=O)(=O)c3cc(Cl)cc(Cl)c3)cc21` [Example 8, N-[1-(2-dimethylaminoethyl)-1H-indole-6-yl]-3,5-dichlorobenzenesulfonamide], the melting point was 150 to 159 °C.
